{"source": "patent US10287301B2", "about": "(Achillion Pharmaceuticals, Inc., priority 2015, dated 2019)", "biological_target": "Human Factor D (Homo sapiens (Human), UniProt P00746)", "sequence (P00746 26-253)": "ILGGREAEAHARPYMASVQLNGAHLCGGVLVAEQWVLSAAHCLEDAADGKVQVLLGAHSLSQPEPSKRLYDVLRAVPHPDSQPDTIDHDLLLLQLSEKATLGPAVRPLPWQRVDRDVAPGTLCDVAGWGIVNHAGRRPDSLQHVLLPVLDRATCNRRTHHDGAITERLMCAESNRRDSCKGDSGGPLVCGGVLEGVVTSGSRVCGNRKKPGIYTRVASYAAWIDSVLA", "test": "Human Factor D Assay", "assay_type": "biochemical", "how_it_was_run": "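IC50 values derive from nonlinear regression of Factor D reaction rates against compound concentration. The enzyme, purified from human serum, is used at 80 nM final with a 5 min room-temperature compound preincubation in 50 mM Tris, 1M NaCl, pH 7.5, before 100 μM Z-L-Lys-SBzl plus 100 μM DTNB are added.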", "key": {"[1]": {"conditions": "Table 3, Human Factor D 80 nM, substrate Z-L-Lys-SBzl, read-out: IC50 (Stars)"}, "[2]": {"conditions": "Human Factor D, Table 3, read-out: IC50"}, "[3]": {"conditions": "Human Factor D 80 nM, substrate Z-L-Lys-SBzl, read-out: IC50"}}, "note": "Read-outs that look alike come from different tables or passages of the source."}
{"molecule": "CC(=O)c1nn(CC(=O)N2C[C@H](F)C[C@H]2C(=O)Nc2ccc(C)c(Br)n2)c2ccc(-c3cnc(C)nc3)cc12", "note": "[Compound 402, (2S,4R)-1-(2-(3-Acetyl-5-(2-methylpyrimidin-5-yl)-1H-indazol-1-yl)acetyl)-N-(6-bromo-5-methylpyridin-2-yl)-4-fluoropyrrolidine-2-carboxamide]", "values": [{"measurement": "IC50", "setting": "[1]", "result": "< 1", "unit": "µM"}]}
{"molecule": "CC(=O)c1nn(CC(=O)N2C[C@H](F)C[C@H]2C(=O)Nc2cccc(Br)n2)c2ccc(-c3cnc4cc(C5CC5)nn4c3)cc12", "note": "[Compound 674, (2S,4R)-1-(2-(3-Acetyl-5-(2-cyclopropylpyrazolo[1,5-a]pyrimidin-6-yl)-1H-indazol-1-yl)acetyl)-N-(6-bromopyridin-2-yl)-4-fluoropyrrolidine-2-carboxamide]", "values": [{"measurement": "IC50", "setting": "[2]", "result": "< 1", "unit": "µM"}]}
{"molecule": "CNC(=O)[C@@H]1C[C@@H](F)CN1C(=O)Cn1nc(C(N)=O)c2cc(-c3ccnnc3)ccc21", "note": "[Compound 79, 1-(2-((2S,4R)-4-fluoro-2-(methylcarbamoyl)pyrrolidin-1-yl)-2-oxoethyl)-5-(pyridazin-4-yl)-1H-indazole-3-carboxamide]", "values": [{"measurement": "IC50", "setting": "[3]", "result": "> 10", "unit": "µM"}]}
{"molecule": "CC(=O)c1cn(CC(=O)N2C[C@H](F)C[C@H]2C(=O)Nc2cncc(Br)c2)c2ccc(-c3ccnnc3)cc12", "note": "[Compound 68, (2S,4R)-1-(2-(3-acetyl-5-(pyridazin-4-yl)-1H-indol-1-yl)acetyl)-N-(5-bromopyridin-3-yl)-4-fluoropyrrolidine-2-carboxamide]", "values": [{"measurement": "IC50", "setting": "[3]", "result": "< 1", "unit": "µM"}]}
{"molecule": "CC(=O)c1cn(CCN2C[C@H](F)C[C@H]2C(=O)Nc2cccc(OC(F)(F)F)c2F)c2ccc(-c3cnc(C)nc3)cc12", "note": "[Compound 594, (2S,4R)-1-(2-(3-Acetyl-5-(2-methylpyrimidin-5-yl)-1H-indol-1-yl)ethyl)-4-fluoro-N-(2-fluoro-3-(trifluoromethoxy)phenyl)pyrrolidine-2-carboxamide]", "values": [{"measurement": "IC50", "setting": "[2]", "result": "> 10", "unit": "µM"}]}
{"molecule": "CC(=O)c1nn(CC(=O)N2C[C@@](F)(CN)C[C@H]2C(=O)Nc2cccc(Br)n2)c2ccc(-c3cnc(C)nc3)cc12", "note": "[Compound 395, (2S,4S)-1-(2-(3-Acetyl-5-(2-methylpyrimidin-5-yl)-1H-indazol-1-yl)acetyl)-4-(aminomethyl)-N-(6-bromopyridin-2-yl)-4-fluoropyrrolidine-2-carboxamide]", "values": [{"measurement": "IC50", "setting": "[1]", "result": "< 1", "unit": "µM"}]}
{"molecule": "CC(=O)c1nn(CC(=O)N2CC[C@@H](N)[C@H]2C(=O)Nc2cccc(Br)n2)c2ccc(-c3cnc(C)nc3)cc12", "note": "[Compound 270, (2S,3R)-1-(2-(3-Acetyl-5-(2-methylpyrimidin-5-yl)-1H-indazol-1-yl)acetyl)-3-amino-N-(6-bromopyridin-2-yl)pyrrolidine-2-carboxamide]", "values": [{"measurement": "IC50", "setting": "Human Factor D assay of Example 8, Table 2, read-out: IC50", "result": "< 1", "unit": "µM"}]}
{"molecule": "CC(=O)c1nn(CC(=O)N2C[C@H](F)C[C@H]2C(=O)Nc2cccc(OC(F)F)n2)c2ccc(-c3cnc(C)nc3)cc12", "note": "[Compound 582, (2S,4R)-1-(2-(3-Acetyl-5-(2-methylpyrimidin-5-yl)-1H-indazol-1-yl)acetyl)-N-(6-(difluoromethoxy)pyridin-2-yl)-4-fluoropyrrolidine-2-carboxamide]", "values": [{"measurement": "IC50", "setting": "[2]", "result": "< 1", "unit": "µM"}]}
{"molecule": "CC(=O)c1cn(CC(=O)N2C[C@H](F)C[C@H]2C(=O)Nc2cccc(Br)n2)c2ccc(-c3cnc(F)nc3)cc12", "note": "[Compound 83, (2S,4R)-1-(2-(3-acetyl-5-(2-fluoropyrimidin-5-yl)-1H-indol-1-yl)acetyl)-N-(6-bromopyridin-2-yl)-4-fluoropyrrolidine-2-carboxamide]", "values": [{"measurement": "IC50", "setting": "[3]", "result": "< 1", "unit": "µM"}]}
{"molecule": "COC[C@@]1(F)C[C@@H](C(=O)Nc2cccc(Br)n2)N(C(=O)Cn2nc(C(C)=O)c3cc(-c4cnc(C)nc4)ccc32)C1", "note": "[Compound 419, (2S,4R)-1-(2-(3-Acetyl-5-(2-methylpyrimidin-5-yl)-1H-indazol-1-yl)acetyl)-N-(6-bromopyridin-2-yl)-4-fluoro-4-(methoxymethyl)pyrrolidine-2-carboxamide]", "values": [{"measurement": "IC50", "setting": "[1]", "result": "< 1", "unit": "µM"}]}
